The results in this text go back to US10273218B2, “BCL-3 inhibitors” (University College Cardiff Consultants Limited, priority 2014, dated 2019).

Data set [1] concerns human breast cancer MDA-MB-231 xenograft. The data set is described as follows: in vivo metastasis mouse Model 1 (seeding and early colonization of circulating tumour cells). Details: species or system mice. As to conditions: 3.5 mg/Kg intraperitoneal daily for 10 days, relative luminescence of thoracic region; for inhibition of metastasis / tumour burden in Model 1: versus controls and compound 12. The procedure: In all experiments, each compound was administered by intraperitoneally at 3.5 mg/kg.
One model (Model 1) studied the effect of the compound's ability to inhibit the seeding and early colonization of circulating tumour cells at distal sites, most commonly in the lungs and liver. Human tumour cell lines were injected into the bloodstream of recipient mice, followed by single daily intraperitoneal injections of the compound (3.5 mg/kg in 1% DMSO) for 10 consecutive days. Tumour burden was monitored longitudinally for up to 8 weeks in vivo by live luminescence imaging, and subsequently histology performed on affected organs at the end of the experiment.
Model 1 tested the effect of Bcl3i compounds to inhibit the seeding and early colonization of circulating tumour cells at distal sites, most commonly in the lungs and liver. Human tumour cell lines were injected into the bloodstream of recipient mice, followed by single daily intraperitoneal injections of Bcl3 inhibitor (3.5 mg/kg in 1% DMSO) for 10 consecutive days. Tumour burden was monitored longitudinally for up to 8 weeks in vivo by live luminescence imaging, and subsequently histology performed on affected organs at the end of the experiment.
The X axis represents the number of days after xenograft and the Y axis is the relative luminescence of the thoracic region by Xenon IVIS scanning of mice following injection of d-luciferin for 10 minutes.
MDA-MB-231 human breast cancer cells were used in each of the three xenograft models of metastatic breast cancer.

Usually melting point stands for the temperature, or range, at which the solid turns liquid. In the case of `COc1ccc(C(=O)Nc2cccc(F)c2C(=O)NCCN2CCOCC2)c(F)c1` [Compound 28], the melting point lay within 105 to 107 °C. Further, the “inhibition of metastasis / tumour burden in Model 1” value in data set [1] is listed as “significant reduction in tumour burden compared to controls but reduced effect compared to compound 12”.

Take `O=C(Nc1ccccc1C(=O)NCCN1CCOCC1)c1cccc([N+](=O)[O-])c1` [Compound 146, N-(2-morpholinoethyl)-2-(3-nitrobenzamido)benzamide]: the melting point was 147 to 149 °C.

`COc1ccc(C(=O)Nc2ccccc2C(=O)NCCN2CCN(C)CC2)cc1` [Compound 54, 2-(4-methoxybenzamido)-N-(2-(4-methylpiperazin-1-yl)ethyl) benzamide] came in with a melting point of 114 °C.

In the case of `COc1ccc(C(=O)Nc2ccccc2C(=O)NCCN2CCN(C)CC2)c(F)c1` [Compound 58, 2-fluoro-4-methoxy-N-(2-((2-(4-methylpiperazin-1-yl)ethyl)carbamoyl)phenyl)benzamide], the melting point lay in the range of 110 to 112 °C.

Consider `COc1cc(NC(=O)c2cccnc2)c(C(=O)NCCN2CCOCC2)c(OC)c1OC` [Compound 33, N-(3,4,5-trimethoxy-2-((2-morpholinoethyl)carbamoyl)phenyl) nicotinamide], for which the melting point was 155 °C.

In the case of `CN1CCN(CCCNC(=O)c2ccccc2NC(=O)c2cccc3ccccc23)CC1` [Compound 68, N-(2-((3-(4-methylpiperazin-1-yl)propyl)carbamoyl)phenyl)-1-naphthamide], the melting point is 98 to 100 °C.

Regarding `O=C(Nc1ccccc1C(=O)NCCc1ccccc1)c1ccc(Cl)cc1` [Compound 76, 2-(4-chlorobenzamido)-N-phenethylbenzamide], the melting point fell in the range of 104 to 106 °C.

In the case of `O=C(Nc1ccccc1C(=O)NCCN1CCOCC1)c1ccc(C(F)(F)F)cc1` [Compound 11, N-(2-morpholinoethyl)-2-(4-(trifluoromethyl)benzamido) benzamide], the melting point was 99 to 101 °C.

`COc1ccc(C(=O)Nc2ccccc2C(=O)NCCCc2ccccc2)cc1` [Compound 96, 2-(4-methoxybenzamido)-N-(3-phenylpropyl)benzamide]: the melting point was in the range of 93 to 94 °C.

On to `O=C(NCCN1CCNCC1)c1ccccc1NC(=O)c1c(F)cccc1F` [Compound 44, 2,6-difluoro-N-(2-((2-(piperazin-1-yl)ethyl)carbamoyl)phenyl) benzamide], for which the melting point was 79 °C.

For `COc1cc(C(=O)NCCCc2ccccc2)c(NC(=O)c2ccccc2F)c(OC)c1OC` [Compound 124, 2-(2-fluorobenzamido)-3,4,5-trimethoxy-N-(3-phenylpropyl)benzamide], the melting point fell in the range of 145 to 147 °C.

In turn, `COc1ccc(C(=O)Nc2cc(OC)c(OC)cc2C(=O)NCCN2CCN(C)CC2)cc1` [Compound 61, 4,5-dimethoxy-2-(4-methoxybenzamido)-N-(2-(4-methylpiperazin-1-yl)ethyl)benzamide] registered a melting point of 70 °C.

In turn, `COc1cccc(C(=O)NCCc2ccccc2)c1NC(=O)c1cccc(F)c1` [Compound 85, 2-(3-fluorobenzamido)-3-methoxy-N-phenethylbenzamide] showed a melting point of 99 to 101 °C.

For `O=C(Nc1ccccc1C(=O)NCCN1CCNCC1)c1cccc(Cl)c1` [Compound 102, 2-(3-chlorobenzamido)-N-(2-(piperazin-1-yl)ethyl)benzamide], the melting point lay in the range of 59 to 61 °C.

Take `COc1cccc(C(=O)Nc2c(OC)cccc2C(=O)NCCN2CCOCC2)c1` [Compound 26, 3-methoxy-2-(3-methoxybenzamido)-N-(2-morpholinoethyl) benzamide]: the melting point lay within 110 to 113 °C.

The compound `O=C(Nc1ccccc1C(=O)NCCN1CCOCC1)c1cccnc1` [Compound 32, N-(2-((2-morpholinoethyl)carbamoyl)phenyl)nicotinamide] returned a melting point of 85 °C.

In the case of `COc1cc(NC(=O)c2ccccc2F)c(C(=O)NCCN2CCOCC2)cc1OC` [Compound 19, 2-(2-fluorobenzamido)-4,5-dimethoxy-N-(2-morpholinoethyl) benzamide], the melting point amounted to 136 °C.

Compound `CN1CCN(CCNC(=O)c2ccccc2NC(=O)c2cccc(F)c2)CC1` [Compound 50, 2-(3-fluorobenzamido)-N-(2-(4-methylpiperazin-1-yl)ethyl) benzamide] gave a melting point of 81 °C.

Compound `O=C(Nc1ccccc1C(=O)NCCN1CCNCC1)c1ccc(Cl)cc1` [Compound 39, 2-(4-chlorobenzamido)-N-(2-(piperazin-1-yl)ethyl)benzamide] registered a melting point of 60 °C.

Regarding `COc1cccc(C(=O)NCCN2CCOCC2)c1NC(=O)c1ccccc1F` [Compound 145, 2-(2-fluorobenzamido)-3-methoxy-N-(2-morpholinoethyl)benzamide], the melting point was in the range of 105 to 107 °C.

`COc1cccc(C(=O)NCCCc2ccccc2)c1NC(=O)c1ccc2ccccc2c1` [Compound 120, N-(2-methoxy-6-((3-phenylpropyl)carbamoyl)phenyl)-2-naphthamide] displayed a melting point of 152 to 154 °C.

Compound `COc1ccccc1C(=O)Nc1c(OC)cccc1C(=O)NCCN1CCOCC1` [Compound 25, 3-methoxy-2-(2-methoxybenzamido)-N-(2-morpholinoethyl) benzamide] registered a melting point of 105 to 107 °C.

Turning to `CN1CCN(CCNC(=O)c2ccccc2NC(=O)c2ccccc2C(F)(F)F)CC1` [Compound 117], the melting point lay within 124 to 126 °C.

On to `CN1CCN(CCCNC(=O)c2ccccc2NC(=O)c2ccc3ccccc3c2)CC1` [Compound 69, N-(2-((3-(4-methylpiperazin-1-yl)propyl)carbamoyl)phenyl)-2-naphthamide], for which the melting point was 71 to 72 °C.

For `O=C(Nc1ncccc1C(=O)O)c1ccccc1F` [Compound 105, 2-(2-fluorobenzamido)nicotinic acid], the melting point is greater than 90 °C.

Compound `CN1CCN(CCNC(=O)c2ccccc2NC(=O)c2ccc(F)cc2F)CC1` [Compound 57, 2,4-difluoro-N-(2-((2-(4-methylpiperazin-1-yl)ethyl)carbamoyl)phenyl)benzamide] gave a melting point of 121 to 122 °C.

Compound `CN1CCN(CCNC(=O)c2ccccc2NC(=O)c2ccccc2F)CC1` [Compound 49, 2-fluoro-N-(2-((2-(4-methylpiperazin-1-yl)ethyl)carbamoyl)phenyl)benzamide] registered a melting point of 116 °C. Besides, in data set [1], the “potency of effect in Model 1 relative to compound 28” value is “more potent effects than compound 28” and the “inhibition of metastasis / tumour burden in Model 1” value is recorded as “equivalent inhibition of metastasis in vivo to compound 12”.

Turning to `CN1CCN(CCNC(=O)c2ccccc2NC(=O)c2ccc(Cl)cc2)CC1` [Compound 52, 2-(4-chlorobenzamido)-N-(2-(4-methylpiperazin-1-yl)ethyl) benzamide], the melting point amounted to 99 °C.

On to `COc1ccccc1C(=O)Nc1ccccc1C(=O)NCCN1CCN(C)CC1` [Compound 53, 2-methoxy-N-(2-((2-(4-methylpiperazin-1-yl)ethyl)carbamoyl)phenyl)benzamide], for which the melting point stood at 111 °C.

For `COc1ccc(C(=O)Nc2ccccc2C(=O)NCCCN2CCOCC2)cc1` [Compound 35, 2-(4-methoxybenzamido)-N-(3-morpholinopropyl)benzamide], the melting point was 112 to 114 °C.

On to `CN1CCN(CCNC(=O)c2ccccc2NC(=O)c2ccc(C(F)(F)F)cc2)CC1` [Compound 108], for which the melting point fell in the range of 68 to 71 °C.

`CN1CCN(CCNC(=O)c2ccccc2NC(=O)c2cc(F)cc(F)c2)CC1` [Compound 56, 3,5-difluoro-N-(2-((2-(4-methylpiperazin-1-yl)ethyl)carbamoyl)phenyl)benzamide] registered a melting point of 111 °C.

In turn, `COc1cccc(C(=O)NCCCc2ccccc2)c1NC(=O)c1cccc2ccccc12` [Compound 125, N-(2-methoxy-6-((3-phenylpropyl)carbamoyl)phenyl)-1-naphthamide] displayed a melting point of 150 to 152 °C.

Compound `O=C(NCCCN1CCOCC1)c1ccccc1NC(=O)c1cccc2ccccc12` [Compound 36, N-(2-((3-morpholinopropyl)carbamoyl)phenyl)-1-naphthamide] came in with a melting point of 110 to 112 °C.

`COc1cc(NC(=O)c2ccccc2F)c(C(=O)NCCN2CCN(C)CC2)c(OC)c1OC` [Compound 60, 6-(2-fluorobenzamido)-2,3,4-trimethoxy-N-(2-(4-methylpiperazin-1-yl)ethyl)benzamide] gave a melting point of 130 °C.

The compound `O=C(NCCN1CCOCC1)c1ccccc1NC(=O)c1ccccc1[N+](=O)[O-]` [Compound 147, N-(2-morpholinoethyl)-2-(2-nitrobenzamido)benzamide] yielded a melting point of 138 to 140 °C.

Regarding `O=C(Nc1ccccc1C(=O)NCCc1ccccc1)c1cccnc1` [Compound 94, N-(2-(phenethylcarbamoyl)phenyl)nicotinamide], the melting point amounted to 94 °C.
